Data as given in patent US9808469B2, “Antitumor activity of multi-kinase inhibitors in triple negative breast cancer” (ENTRECHEM, S.L, priority 2014, dated 2017).
Like-named read-outs stand apart in the source and are kept apart here.

Key:
Assay type in all cases: cell-based
MDA-MB-231 cells [1] = assay: MTT metabolization, inhibition of MDA-MB-231 cell proliferation; conditions: Homo sapiens, read-out: Percentage inhibition Formula (III) mean
Protocol: These triple negative breast cancer cell lines were obtained from the American Type Culture Collection Cell Biology Collection (ATCC) (Manassas, Va.). The medium was changed every 2 days.
Cell proliferation and growth experiments were carried out using 3-(4,5-dimethylthiazol-2-yl)-2,5-diphenyltetrazolium bromide (MTT) uptake assays, where MTT is reduced to purple formazan by the mitochondria of living cells. Increase in cell number is detected by augmented MTT metabolization, and decrease in cell number is reflected by a decrease. […] The cells were treated with the drug at different concentrations to plot the dose-response curves in all cancer cell lines using in the study. […] After treatment, each well was replaced with 250 μL of fresh medium containing MTT ([…]) and incubated for 1 hour. The medium was then removed and 500 μL of dimethyl sulfoxide was added to each well. The plate was agitated in the dark for 5 minutes to dissolve the MTT-formazan crystals. The absorbance of the samples was recorded at 562 nm in a multi-well plate reader (BMG labtech). Results were plotted as the mean values of quadruplicates from a representative experiment that was repeated at least two independent times.
Combination index values less than 1 indicate synergism, values equal to 1 indicate an additive effect, whereas values greater than 1 indicate antagonism. Combination index values from three independent experiments were generated.

[2] = test system: HS578T, BT549, MDA-MB-231 and HCC3153 cells; assay: MTT metabolization in a panel of TNBC cell lines
Protocol: Hs578T, BT549 and MDA-MB-231 were grown in DMEM and HCC3153 in RPMI; both mediums were purchased from Sigma Aldrich, supplemented with 10% FBS, 100 mU/mL penicillin, 100 μg/mL streptomycin and 2 mM L-glutamine, in a 5% CO2 atmosphere at 37° C. These triple negative breast cancer cell lines were obtained from the American Type Culture Collection Cell Biology Collection (ATCC) (Manassas, Va.). The medium was changed every 2 days.
Cell proliferation and growth experiments were carried out using 3-(4,5-dimethylthiazol-2-yl)-2,5-diphenyltetrazolium bromide (MTT) uptake assays, where MTT is reduced to purple formazan by the mitochondria of living cells. Increase in cell number is detected by augmented MTT metabolization, and decrease in cell number is reflected by a decrease. HS578T, BT549, MDA-MB-231 and HCC3153 cells were plated at a density of 1×10^4 cells per well in 24-well plates and cultured overnight in DMEM supplemented with 10% FBS. The cells were treated with the drug at different concentrations to plot the dose-response curves in all cancer cell lines using in the study. […] After treatment, each well was replaced with 250 μL of fresh medium containing MTT ([…]) and incubated for 1 hour. The medium was then removed and 500 μL of dimethyl sulfoxide was added to each well. The plate was agitated in the dark for 5 minutes to dissolve the MTT-formazan crystals. The absorbance of the samples was recorded at 562 nm in a multi-well plate reader (BMG labtech). Results were plotted as the mean values of quadruplicates from a representative experiment that was repeated at least two independent times.

[3] = test system: HS578T, BT549 and MDA-MB-231 cells; assay: Three-dimensional growth in matrigel (spherical structures)
Protocol: For three-dimensional cell culture, the bottom of 24 multi-dish plates was covered with a thin ice-cold 4% Matrigel (BD Biosciences) layer and incubated at 37° C. for 20 minutes to allow the Matrigel to solidify. Matrigel was added to conventional DMEM. The desired cells were tripsinized (0.25% trypsin-EDTA solution (2.5 g/L of trypsin, 0.38 g/L of EDTA) collected and resuspended to a final concentration of 12.500 cls/mL in 2% Matrigel. The cell suspension was added over the solidified Matrigel layer and incubated at 37° C. The medium was changed after 4 days and the cell culture was daily visualized under a microscope for phenotype monitoring. The cells were cultured for 10 days.

MDA-MB-231 cells [4] = assay: Microarray analysis of mRNA and RT-PCR of DNA repair genes; conditions: 500 nM, 24 h; confirmed by RT-PCR
Protocol: MDA-MB-231 cells were grown in DMEM with 10% of FBS, and when 70% confluent, cells were treated with 500 nM Formula (III) for 24 h. Total RNA was extracted and purified using the RNeasy Mini Kit (Qiagen). Double-stranded cDNA and biotinylated cRNA were synthesized using a T7-polyT primer and the BioArray RNA labeling kit (Enzo Life Sciences, Farmingdale, N.Y.), respectively. The labeled RNA was fragmented and hybridized to human oligonucleotide arrays (Human Gene ST Arrays) (Affymetrix, Santa Clara, Calif.) according to manufacturers instructions. For the microarray data analysis, Affymetrix CEL files from each of the two microarray hybridization experiments for the two conditions [untreated control and treated with 500 nM Formula (III)] were imported into the dChip software (Dana Farber Cancer Institute, Boston, Mass.). […] The list of genes was analyzed using functional annotation bioinformatics microarray analysis (DAVID), and gene set enrichment analyses (GSEA). […]
Total RNA was extracted from cells with Rneasy Mini Kit (QIAGEN) as recommended by the supplier. cDNAs were synthesized from […] of total RNA by using RevertAid H Minus First Strand cDNA synthesis Kit (Fermentas) in a total volume of […]. […] Samples were analyzed in triplicate and mRNA expression was normalized to GADPH […] and quantified by the comparative cycle threshold (Ct) method. […]

Q: What does the source list for C[C@]12O[C@H](C[C@@H](O)[C@H]1O)n1c3ccccc3c3c4c(c5c6ccccc6n2c5c31)C(=O)NC4=O [Formula (III)]?
A: viability at 0.1 µM (MDA-MB-231 cells [1]; MDA-MB-231, Formula (III) 100 nM alone (Table 4)): 56.4%; viability at 0.1 µM (MDA-MB-231 cells [1]; MDA-MB-231, Formula (III) 100 nM alone (Table 5)): 62.5%; viability at 0.12 µM (MDA-MB-231 cells [1]; MDA-MB-231, Formula (III) 120 nM alone (Table 2)): 63.8%; viability at 0.12 µM (MDA-MB-231 cells [1]; MDA-MB-231, Formula (III) 120 nM alone): 63.8%; viability at 0.18 µM (MDA-MB-231 cells [1]; MDA-MB-231, Formula (III) 180 nM alone (Table 2)): 49.8%; viability at 0.18 µM (MDA-MB-231 cells [1]; MDA-MB-231, Formula (III) 180 nM alone): 49.8%; viability at 0.2 µM (MDA-MB-231 cells [1]; MDA-MB-231, Formula (III) 200 nM alone (Table 3)): 60.3%; viability at 0.2 µM (MDA-MB-231 cells [1]; MDA-MB-231, Formula (III) 200 nM alone (Table 4)): 56.4%; viability at 0.2 µM (MDA-MB-231 cells [1]; MDA-MB-231, Formula (III) 200 nM alone (Table 5)): 46.9%; viability at 0.24 µM (MDA-MB-231 cells [1]; MDA-MB-231, Formula (III) 240 nM alone (Table 2)): 38.2%; viability at 0.24 µM (MDA-MB-231 cells [1]; MDA-MB-231, Formula (III) 240 nM alone): 38.2%; viability at 0.26 µM (MDA-MB-231 cells [1]; MDA-MB-231, Formula (III) 260 nM alone (Table 3)): 54.5%; viability at 0.3 µM (MDA-MB-231 cells [1]; MDA-MB-231, Formula (III) 300 nM alone (Table 2)): 28.1%; viability at 0.3 µM (MDA-MB-231 cells [1]; MDA-MB-231, Formula (III) 300 nM alone (Table 3)): 49.4%; viability at 0.3 µM (MDA-MB-231 cells [1]; MDA-MB-231, Formula (III) 300 nM alone (Table 4)): 40.2%; viability at 0.3 µM (MDA-MB-231 cells [1]; MDA-MB-231, Formula (III) 300 nM alone (Table 5)): 40.5%; viability at 0.3 µM (MDA-MB-231 cells [1]; MDA-MB-231, Formula (III) 300 nM alone): 28.1%; viability at 0.38 µM (MDA-MB-231 cells [1]; MDA-MB-231, Formula (III) 380 nM alone (Table 3)): 36.9%; viability at 0.4 µM (MDA-MB-231 cells [1]; MDA-MB-231, Formula (III) 400 nM alone (Table 4)): 35.3%; viability at 0.4 µM (MDA-MB-231 cells [1]; MDA-MB-231, Formula (III) 400 nM alone (Table 5)): 33.7%; MTT metabolization ([2]; 0 to 2 μM after 72 h, 500 nM over 6 days): inhibited the MTT metabolization in a dose and time dependent manner; growth inhibition ([2]; doses in the submicromolar (nanomolar) range, all cell lines studied): more than 80%; IC50 ([2]; read-out: IC50 dose (MTT metabolization)): 0.5 µM; diameter of spherical structures in matrigel [3]: strongly decreased the diameter of these spheres; expression of genes involved in DNA repair (MDA-MB-231 cells [4]): increased expression of genes involved in DNA repair
